Like-named read-outs stand apart in the source and are kept apart here. Where a SMILES comes first, the peptide text is derived from it. Where no end group is shown, it is not given here.
Experiments:
p34^cdc2 [1] = molecular target: T1, p34^cdc2 (Homo sapiens, UniProt P06493); assay: Histone H1 kinase activity of p107 30mer-sepharose bound versus immunoprecipitated p34^cdc2; format: biochemical; set-up: endogenous in cells; host or cells: HeLa
Protocol: (§1) Assay of p34^cdc2 Kinase Activity: Histone H1 kinase reactions were performed in 50 mM Tris, pH 8.0, 10 mM MgCl2, 0.5 mM DTT, 1 mM EGTA plus 0.1 mM ATP, 1 μCi γ-[^32 P]-ATP and 10 μg histone H1 (Boeringer Mannheim), and a source of p34^cdc2. Reactions were incubated at 30° C. for 20 minutes and stopped by the addition of protein gel sample buffer. Kinase reactions were separated by SDS-PAGE (12.5% gel). The bands were detected by autoradiography and the amount of ^32 P incorporated was quantitated using an Ambis Radioanalytic Imaging System.
In order to examine the effect of binding of p34^cdc2 to p107 30mer-sepharose on p34^cdc2 kinase activity, histone H1 kinase activities associated with p107 30mer-sepharose and immunoprecipitated p34^cdc2 were compared as follows. p34^cdc2 was bound to p107 30mer-sepharose as described in Example 2. Histone H1 kinase reactions were performed using either immunoprecipitated or p107 30mer-sepharose bound p34^cdc2. The amount of p34^cdc2 bound to p107 30mer-sepharose was compared with that contained within the immune complex by western blot. Two times the amount of immunoprecipitated p34^cdc2 used in the kinase reaction was blotted to facilitate easier detection. The amount of p34^cdc2 associated with the p107 30mer-sepharose was determined by densitometry to be ≥50 time greater than contained within the immune complexes.

p34^cdc2 [2] = molecular target: T1, p34^cdc2; assay: Peptide inhibition of p34^cdc2 immune complex histone H1 kinase activity; format: biochemical; set-up: endogenous in cells; host or cells: HeLa; details: for inhibition at 50 µM: 50 μM peptide, p34^cdc2 immune complex from HeLa cells, histone H1 substrate, read-out: p34^cdc2 Inhib. (%)
Protocol: (§2) HeLa Cell Lysates: HeLa cell extracts served as a source of p34^cdc2 and p33^cdk2 and were prepared as follows. HeLa cells were lysed in 20 mM N-[2-hydroxyethyl]piperazine-N'-[2-[…]] (HEPES), pH 7.0, 150 mM NaCl, 5 mM sodium vanadate, 10 mM Na4 P2 O7, 1 mM ZnCl2, 2 mM ethylene-diaminetetraacetic acid (EDTA), 2 mM ethylene glycol-bis(β-aminoethyl ether)-N,N,N',N'-tetraacetic acid (EGTA), 1 mM dithiothreitol (DTT), 0.25% (v:v) NP-40, 1 mM Benzamidine, 1 mM phenylmethylsulfonyl fluoride (PMSF) and 20 μg/ml each: N2 S2 O3, leupeptin, Antipan and Pepstatin, followed by centrifugation to remove cell debris.
Immunoprecipitation of p34^cdc2 : Immunoprecipitation of p34^cdc2 from HeLa cell extracts was performed using previously reported procedures (Harlow et al. (1988) in: Antibodies: A Laboratory Manual, ed. Harlow and Lane, Cold Spring Harbor: Cold Spring Harbor Laboratory, pp 421-470) and anti-p34^cdc2 antibody, G6 (Gibco, BRL). Immunoprecipitation by this method yields an activated kinase complex (Draetta et al. (1988), Cell 54:17-26).
as §1
As a further test of the association of p107 with p34^cdc2, and to define the minimal sequence necessary for interaction with p34^cdc2, the effect of p107 peptides on the p34^cdc2 immune complex histone H1 kinase activity was assessed. Both amino- and carboxy-terminal deletions were introduced into the original 30 amino acid peptide (see Table 1). The peptides were synthesized by standard methods and purified by HPLC. Immune complexes were formed as described in Example 4 and resuspended in kinase buffer plus 50 μM of the respective peptide solubilized in N,N-dimethylformamide, or an equal volume of solvent. After incubating the reactions for 15 minutes on ice, histone H1 and γ-[^32 P]-ATP were added and the kinase assays were performed and quantitated as described in Example 4.
The binding affinity of the 9mer peptide for p34^cdc2 was approximated by relating the percent inhibition of histone H1 kinase activity to peptide concentration. Reactions were performed as described in Example 4. The percent inhibition was quantitated using an Ambis Radioanalytic Imaging System. The percent inhibition was plotted versus the peptide concentration. In calculating a binding constant, it was assumed that the concentration of substrate and peptide were in vast excess of the p34^cdc2 protein, which was assumed to be limiting in the reaction.

p34^cdc2 [3] = molecular target: T1, p34^cdc2; assay: ELISA based competition assay: p34^cdc2 kinase from cell extracts binding to a p107 30mer coated plate; set-up: endogenous in cells; HeLa per the general methods
From the text: An ELISA based assay was developed to measure the activity of p107 peptides and their derivatives. A 96-well cluster plate coated with the p107 30mer binds to p34^cdc2 kinase from cell extracts. This binding is easily detectable with anti-p34^cdc2 antibodies and can be used to quantitate the affinity of the p107 wild type and mutant peptides for the p34^cdc2 kinase in addition to the kinase inhibition assay described in Example 7. A summary of all modifications to the original p107 peptides and their effect on binding and kinase inhibition is presented in Table 1. The affinity of the p107 9mer peptide for p34^cdc2 kinase is approximately 10 μM as measured by the ELISA based competition assay, which is in agreement with the binding constant approximated from the kinase inhibition assay as described in Example 7.

HPV18-E7 protein = molecular target: T2, HPV18-E7 protein (Human papillomavirus type 18, UniProt P06788); assay: biochemical; format: binding
T2 construct: made in house
T2 sequence (P06788 whole entry): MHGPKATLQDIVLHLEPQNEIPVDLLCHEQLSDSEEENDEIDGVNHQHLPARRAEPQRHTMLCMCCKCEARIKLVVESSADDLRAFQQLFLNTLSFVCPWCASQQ
Protocol: The association of bacterially expressed HPV18-E7 protein with the p107 30mer peptide was analyzed using an ELISA assay. In the experiment depicted in FIG. 3A, a 96-well cluster plate was coated with p107 30mer peptide and incubated with increasing concentration of a MBP-E7 fusion protein or the MBP protein as a control. […] In the experiment depicted in FIG. 3B, MBP-E7 fusion protein (100 ng) was incubated with a p107 30mer peptide-coated plate in the presence of increasing concentrations of free p107 9mer peptide.

HPV16-E7 protein = HPV16-E7 protein (Human papillomavirus type 16, UniProt P03129); details: CaSki cell extract, western blot
Chain of HPV16-E7 protein (P03129 whole entry, the tested form may be a part): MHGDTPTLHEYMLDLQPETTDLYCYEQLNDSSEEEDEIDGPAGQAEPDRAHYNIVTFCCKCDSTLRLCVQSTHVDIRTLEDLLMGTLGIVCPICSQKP
From the text: Rb and p107 form specific complexes with the adenovirus E1A oncoprotein and Rb forms a similar complex with the E7 oncoprotein human papillomavirus (HPV). In order to determine whether the p107 30mer peptide domain and Rb may interact with other tumor suppressor proteins or other cellular and viral ligands, p107 30mer peptide binding to cellular and bacterially expressed human papillomavirus (HPV)-E7 protein was examined. p107 30 amino acid peptide-sepharose, prepared as described in Example 2, was incubated with CaSki cell (HPV-16 positive cervical carcinoma) extract and assayed for the binding of E7 protein.

p34^cdc2 [4] = molecular target: T1, p34^cdc2; assay: p107 30mer-sepharose pull-down from HeLa cell lysate, western blot with anti-p34^cdc2 antibody; format: binding; set-up: endogenous in cells; host or cells: HeLa
Protocol: as §2
In order to test whether the α-helix II domain is involved in the interaction of Rb, p107 and cyclin E with p34^cdc2, a 30 amino acid peptide from p107 (residues 692-721: […] [SEQ ID NO:11]) encompassing α-helix II, was synthesized and assayed for its ability to associate with p34^cdc2. […] The concentration of 30mer linked to the bead was 0.85 μmole/ml as determined by HPLC. […] The bound proteins were eluted with increasing concentrations of NaCl, separated by sodium dodecyl sulfate-polyacrylamidegel electrophoresis (SDS-PAGE) (12.5% gel) and transferred to polyvinylidene difluoride (PVDF) membranes. p34^cdc2 was detected by probing the membrane with anti-p34^cdc2 antibody, G6 (Gibco, BRL) (see, Draetta et al. (1988), supra).

[5] = Table 1 binding, assay not given, taken as ELISA competition for p34^cdc2 binding, read-out: IC50

T1 sequence (P06493 whole entry): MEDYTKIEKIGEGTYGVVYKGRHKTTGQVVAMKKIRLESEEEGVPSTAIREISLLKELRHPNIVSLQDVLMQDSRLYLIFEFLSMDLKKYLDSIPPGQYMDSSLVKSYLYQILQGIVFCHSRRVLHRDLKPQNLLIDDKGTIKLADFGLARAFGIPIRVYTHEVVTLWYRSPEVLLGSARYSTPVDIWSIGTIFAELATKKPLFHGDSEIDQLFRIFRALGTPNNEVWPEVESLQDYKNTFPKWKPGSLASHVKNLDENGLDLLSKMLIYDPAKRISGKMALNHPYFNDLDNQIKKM

Compound	inhibition at 50 µM (p34^cdc2 [2]) [%]	IC50 (p34^cdc2 [3]; [5]) [µM]	other results
CC[C@H](C)[C@H](NC(=O)[C@H](Cc1ccc(O)cc1)NC(=O)[C@H](Cc1ccccc1)NC(=O)[C@H](C)NC(=O)[C@H](CS)NC(=O)[C@H](CC(C)C)NC(=O)[C@H](CC(C)C)NC(=O)[C@H](CC(C)C)NC(=O)[C@H](CCC(N)=O)NC(=O)[C@H](CC(=O)O)NC(=O)[C@H](CC(C)C)NC(=O)[C@H](Cc1c[nH]cn1)NC(=O)[C@H](CCCNC(=N)N)NC(=O)[C@H](CC(=O)O)NC(=O)[C@H](CCCCN)NC(=O)[C@H](CCSC)NC(=O)[C@H](CC(C)C)NC(=O)[C@H](CC(=O)O)NC(=O)[C@@H]1CCCN1C(=O)[C@H](CS)NC(=O)[C@H](Cc1c[nH]cn1)NC(=O)[C@@H](NC(=O)[C@H](CC(C)C)NC(=O)[C@@H](NC(=O)[C@H](Cc1ccccc1)NC(=O)[C@H](CCC(=O)O)NC(=O)[C@@H](N)Cc1ccccc1)[C@@H](C)O)C(C)C)C(=O)N[C@@H](CCSC)C(=O)N[C@@H](C)C(=O)N[C@@H](CCCCN)C(=O)O [30mer] (H-FEFTLVHCPDLMKDRHLDQLLLCAFYIMAK-OH)			specific activity of peptide bound enzyme relative to the specific activity of the immune complex (p34^cdc2 [1]; normalized for the amount of p34^cdc2 protein): 1.4%
C[C@H](NC(=O)[C@@H](N)CS)C(=O)N[C@@H](Cc1ccccc1)C(=O)N[C@@H](Cc1ccc(O)cc1)C(=O)O [NC4mer, CAFY] (H-CAFY-OH)	0		
AFYIMAK [N7mer, AFYIMAK]	0		
CAFYI [NC5mer, CAFYI]	82	13	
CAFYIGSPKK [NC5mer-SPKK, CAFYIGSPKK]	80		
DLMKDRHLDQLLLCAFYIMAK [21mer]	70		
KDRHLDQLLLCAFYIMAK [18mer, KDRHLDQLLLCAFYIMAK]	80		
LCAAYIMAK [715FA, LCAAYIMAK]	0	> 100	
LCAFAIMAK [716YA, LCAFAIMAK]	0	40	
LCAFFIMAK [716YF, LCAFFIMAK]	80	25	
LCAFY [C5mer, LCAFY]	0		
LCAFYI [C6mer, LCAFYI]	79		
LCAFYIM [C7mer, LCAFYIM]	70		
LCAFYIMAK [9mer, LCAFYIMAK]	90	9	Kd (p34^cdc2 [3]; ELISA based competition assay, read-out: affinity for p34^cdc2 kinase): ~10 µM; Kd (HPV18-E7 protein): ~1 nM; Kd (p34^cdc2 [2]; percent inhibition plotted versus peptide concentration, FIG. 2, read-out: kd calculated from the point of 50% inhibition of histone H1 kinase activity): ~10 µM
LCAFYIMQK [719AQ, LCAFYIMQK]	75		
LCAFYKMAK [717IK, LCAFYKMAK]	0	> 100	
LCAKYIMAK [715FK, LCAKYIMAK]	0	> 100	
LCAYYIMAK [715FY, LCAYYIMAK]	20	45	
LCEFYIMAK [714AE, LCEFYIMAK]	0	23	
LDQLLLCAFYIMAK [14mer, LDQLLLCAFYIMAK]	80		
LFAFYIMAK [713CF, LFAFYIMAK]	60	15	decrease in the peptide's ability to inhibit histone H1 kinase activity (p34^cdc2 [2]; versus 9mer): 30%
PKKKRKVCAFYI [SV-NC5mer, PKKKRKVCAFYI]	0		
RKRCAFYI [PKG-NC5mer, RKRCAFYI]	0		
RRCAFYI [RR-NC5mer, RRCAFYI]	0		
SPKKGCAFYI [SPKK-NC5mer, SPKKGCAFYI]	0		
YIMAK [N5mer, YIMAK]	0		IC50 (p34^cdc2 [3]): > 100 µM
p107 30mer-sepharose: p107 30mer covalently linked to CH-activated sepharose 4B (FEFTLVHCPDLMKDRHLDQLLLCAFYIMAK; cysteine pairing not given here; also: covalently linked to CH-activated sepharose 4B)			binding to HPV16-E7 protein (HPV16-E7 protein): did bind; amount of p34^cdc2 associated relative to that within the immune complexes (p34^cdc2 [1]; western blot densitometry): ≥ 50 time greater; binding to p34^cdc2 (p34^cdc2 [4]; HeLa cell lysate, western blot): binds; stability of the complex with p34^cdc2 to NaCl elution (p34^cdc2 [4]; elution with increasing concentrations of NaCl): stable to 2M NaCl

Source: patent US5625031A, “Peptide inhibitors of the p33^cdk2 and p34^cdc2 cell cycle regulatory kinases and human papillomavirus E7 oncoprotein” (Bristol-Myers Squibb Company, priority 1994, dated 1997)
